“Also recorded” adds a separate entry of the source.
Tests used:
[1] = tested on: non-ischemic cutaneous lesions / non-TB chronic wounds; conditions: cited from earlier work
[2] = Tolerability and body weight in the rat wound model
Method: Rats were anesthetized by intraperitoneal (i.p.) injection of 100 mg/kg ketamine (Parke-Davis, Berlin, Germany) and 15 mg/kg xylazin (Bayer, Leverkusen, Germany). A standardized pedunculated dorsal ischemic skin flap (3 cm×7 cm) was lifted, replaced, and fixed with metal clips. Two full-thickness wounds were made using punch biopsies (8 mm diameter), one in the ischemic flap region and one non-ischemic outside the flap in the neck.
To the control group, comprising 10 rats, 10 ml/kg of sterile isotonic saline was administered. The compounds were masked to the investigators. The first dose was given directly after wounding. Wounds were traced (outer margins) on OpSite* Flexigrid* (Smith & Nephew) 30 minutes after wounding day 0 and after dressing (Hydrosorb, Hartmann) removal and wound cleansing on subsequent days (Table I). On post-wounding day 2, intracutaneous oxygen tensions were measured 1 hour after administration of compounds with Licox® (Integra LifeSciences Corporation) Clark type probe under full anesthesia. The Licox® probe was positioned at the wound edges using a Venflon catheter (FIG. 1).

ischemic wounds = assay: Ischemic cutaneous wound healing in a validated rat model (dorsal ischemic skin flap); format: in vivo, Male Sprague-Dawley rats; conditions: 10 mg/kg i.p. b.i.d., 14 days; 8 mm full-thickness wound in ischemic flap; p=0.014
Method: The compounds were masked to the investigators. The first dose was given directly after wounding.
Results are expressed as mean±SD or mean±SEM. Wound healing differences among the two groups were calculated as the area under the wound healing curves (FIG. 2A+B) with correction according to Bonferroni (p=0.035). Licox® results were analyzed by the Wilcoxon test.

Structure (SMILES): NNC(=O)c1ccncc1 [Isoniazid, pyridine-4-carbohydrazide]
- Effect on healing of a variety of non-TB chronic wounds ([1]; case report, Martyn and Campell (1963)): stimulating effects
- Effect on ischemic tissue ([1]; conclusion of Martyn and Campell (1963)): little effect on ischemic tissue
- Healing of coincidental non-ischemic cutaneous lesions ([1]; tuberculosis and non-tuberculosis patients treated with isoniazid (Potter and Taylor, 1969)): healed
- Body weight difference among groups ([2]; before operation or after 14 days of treatment): did not differ significantly
- Body weights before operation (Mean ± SD) ([2]; before operation, n=10): 360 ± 8 gram
- Rats that died ([2]; group of 10 rats, death 5 days after operation): one
- Body weights on post-wounding day 14 (Mean ± SD) ([2]; post operative day 14, 10 mg/kg i.p. b.i.d., n=9): 341 ± 12 gram
- Healing of ischemic wounds compared with the control (area under the wound healing curves) (ischemic wounds): promoted healing of the ischemic wounds; also recorded: stimulated ischemic wound healing

Source: patent US20100184811A1, “ISONIAZID MEDIATED HEALING OF WOUNDS AND ULCERS” (priority 2006, published 2010)
